According to the supplement of paper PMC10307832:

Tests used:
Assay in all cases: relative viability (nuclei count vs DMSO), 5 days (fraction); higher = more cells survive
LOU-NH91 = system: LOU-NH91
Method in brief: (§1)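 Lung cancer cell lines in 1536-well plates were dosed by pin tool the day after seeding, either with one drug alone or with a fixed anchor-drug dose plus five library-drug doses (not always all listed) in √10 steps. After 5 days, cells were fixed and their nuclei stained in one step (final 0.05% Triton X-100, 1% formaldehyde, 1 ug/ml Hoechst), then counted on 4× images. Relative viability is the nuclei count in treated wells divided by that in vehicle wells. Values are medians of duplicate plates.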

SK-MES-1 = system: SK-MES-1
Method in brief: as §1

NCI-H596 = system: NCI-H596
Method in brief: as §1

NCI-H2170 = system: NCI-H2170
Method in brief: as §1

NCI-H441 = system: NCI-H441
Method in brief: as §1

COR-L 105 = system: COR-L 105
Method in brief: as §1

NCI-H1975 = system: NCI-H1975
Method in brief: as §1

NCI-H1734 = system: NCI-H1734
Method in brief: as §1

SW 900 = system: SW 900
Method in brief: as §1

H3255 = system: H3255
Method in brief: as §1

NCI-H520 = system: NCI-H520
Method in brief: as §1

LK-2 = system: LK-2
Method in brief: as §1

A-427 = system: A-427
Method in brief: as §1

EKVX = system: EKVX
Method in brief: as §1

PC-3 [JPC-3] = system: PC-3 [JPC-3]
Method in brief: as §1

NCI-H1755 = system: NCI-H1755
Method in brief: as §1

NCI-H23 = system: NCI-H23
Method in brief: as §1

ChaGo-K-1 = system: ChaGo-K-1
Method in brief: as §1

EMC-BAC-2 = system: EMC-BAC-2
Method in brief: as §1

HCC-366 = system: HCC-366
Method in brief: as §1

NCI-H1666 = system: NCI-H1666
Method in brief: as §1

NCI-H1563 = system: NCI-H1563
Method in brief: as §1

## COc1cc2nccc(Oc3ccc(NC(=O)Nc4cc(C)on4)c(Cl)c3)c2cc1OC [Tivozanib] + COc1cccc2cc(-c3nc([C@H]4CC[C@H](C(=O)O)CC4)n4ncnc(N)c34)[nH]c12 [OSI-027] (partner 0.5 µM)
LOU-NH91; first compound 0.005 µM
  relative viability: 0.695
LOU-NH91; first compound 0.01581 µM
  relative viability: 0.807
LOU-NH91; first compound 0.05 µM
  relative viability: 0.762
LOU-NH91; first compound 0.1581 µM
  relative viability: 0.61
LOU-NH91; first compound 0.5 µM
  relative viability: 0.729
SK-MES-1; first compound 0.005 µM
  relative viability: 0.515
SK-MES-1; first compound 0.01581 µM
  relative viability: 0.573
SK-MES-1; first compound 0.05 µM
  relative viability: 0.7
SK-MES-1; first compound 0.1581 µM
  relative viability: 0.515
SK-MES-1; first compound 0.5 µM
  relative viability: 0.583
NCI-H596; first compound 0.005 µM
  relative viability: 0.681
NCI-H596; first compound 0.01581 µM
  relative viability: 0.596
NCI-H596; first compound 0.05 µM
  relative viability: 0.866
NCI-H596; first compound 0.5 µM
  relative viability: 0.59
NCI-H2170; first compound 0.005 µM
  relative viability: 0.633
NCI-H2170; first compound 0.01581 µM
  relative viability: 0.78
NCI-H2170; first compound 0.05 µM
  relative viability: 0.723
NCI-H2170; first compound 0.1581 µM
  relative viability: 0.464
NCI-H2170; first compound 0.5 µM
  relative viability: 0.661
NCI-H441; first compound 0.005 µM
  relative viability: 0.453
NCI-H441; first compound 0.01581 µM
  relative viability: 0.506
NCI-H441; first compound 0.05 µM
  relative viability: 0.78
NCI-H441; first compound 0.1581 µM
  relative viability: 0.563
NCI-H441; first compound 0.5 µM
  relative viability: 0.344
COR-L 105; first compound 0.005 µM
  relative viability: 0.707
COR-L 105; first compound 0.01581 µM
  relative viability: 0.748
COR-L 105; first compound 0.05 µM
  relative viability: 0.719
COR-L 105; first compound 0.1581 µM
  relative viability: 0.525
COR-L 105; first compound 0.5 µM
  relative viability: 0.762
NCI-H1975; first compound 0.005 µM
  relative viability: 0.673
NCI-H1975; first compound 0.01581 µM
  relative viability: 0.634
NCI-H1975; first compound 0.05 µM
  relative viability: 0.709
NCI-H1975; first compound 0.1581 µM
  relative viability: 0.565
NCI-H1975; first compound 0.5 µM
  relative viability: 0.475
NCI-H1734; first compound 0.005 µM
  relative viability: 0.567
NCI-H1734; first compound 0.01581 µM
  relative viability: 0.621
NCI-H1734; first compound 0.05 µM
  relative viability: 0.592
NCI-H1734; first compound 0.1581 µM
  relative viability: 0.429
NCI-H1734; first compound 0.5 µM
  relative viability: 0.558
SW 900; first compound 0.005 µM
  relative viability: 0.556
SW 900; first compound 0.01581 µM
  relative viability: 0.501
SW 900; first compound 0.05 µM
  relative viability: 0.641
SW 900; first compound 0.1581 µM
  relative viability: 0.301
SW 900; first compound 0.5 µM
  relative viability: 0.518
H3255; first compound 0.005 µM
  relative viability: 0.571
H3255; first compound 0.01581 µM
  relative viability: 0.597
H3255; first compound 0.05 µM
  relative viability: 0.634
H3255; first compound 0.1581 µM
  relative viability: 0.47
H3255; first compound 0.5 µM
  relative viability: 0.556
NCI-H520; first compound 0.005 µM
  relative viability: 0.244
NCI-H520; first compound 0.01581 µM
  relative viability: 0.249
NCI-H520; first compound 0.05 µM
  relative viability: 0.267
NCI-H520; first compound 0.1581 µM
  relative viability: 0.167
NCI-H520; first compound 0.5 µM
  relative viability: 0.313
LK-2; first compound 0.005 µM
  relative viability: 0.223
LK-2; first compound 0.01581 µM
  relative viability: 0.196
LK-2; first compound 0.05 µM
  relative viability: 0.244
LK-2; first compound 0.1581 µM
  relative viability: 0.172
LK-2; first compound 0.5 µM
  relative viability: 0.194
A-427; first compound 0.005 µM
  relative viability: 0.458
A-427; first compound 0.01581 µM
  relative viability: 0.492
A-427; first compound 0.05 µM
  relative viability: 0.552
A-427; first compound 0.1581 µM
  relative viability: 0.434
A-427; first compound 0.5 µM
  relative viability: 0.368
EKVX; first compound 0.005 µM
  relative viability: 0.665
EKVX; first compound 0.01581 µM
  relative viability: 0.735
EKVX; first compound 0.05 µM
  relative viability: 0.67
EKVX; first compound 0.1581 µM
  relative viability: 0.585
EKVX; first compound 0.5 µM
  relative viability: 0.731
PC-3 [JPC-3]; first compound 0.005 µM
  relative viability: 0.665
PC-3 [JPC-3]; first compound 0.01581 µM
  relative viability: 0.722
PC-3 [JPC-3]; first compound 0.05 µM
  relative viability: 0.774
PC-3 [JPC-3]; first compound 0.1581 µM
  relative viability: 0.591
PC-3 [JPC-3]; first compound 0.5 µM
  relative viability: 0.733
NCI-H1755; first compound 0.005 µM
  relative viability: 0.685
NCI-H1755; first compound 0.01581 µM
  relative viability: 0.77
NCI-H1755; first compound 0.05 µM
  relative viability: 0.733
NCI-H1755; first compound 0.1581 µM
  relative viability: 0.646
NCI-H1755; first compound 0.5 µM
  relative viability: 0.612
NCI-H23; first compound 0.005 µM
  relative viability: 0.578
NCI-H23; first compound 0.01581 µM
  relative viability: 0.595
NCI-H23; first compound 0.05 µM
  relative viability: 0.671
NCI-H23; first compound 0.1581 µM
  relative viability: 0.355
NCI-H23; first compound 0.5 µM
  relative viability: 0.367
ChaGo-K-1; first compound 0.005 µM
  relative viability: 0.601
ChaGo-K-1; first compound 0.01581 µM
  relative viability: 0.555
ChaGo-K-1; first compound 0.05 µM
  relative viability: 0.605
ChaGo-K-1; first compound 0.1581 µM
  relative viability: 0.552
ChaGo-K-1; first compound 0.5 µM
  relative viability: 0.432
EMC-BAC-2; first compound 0.005 µM
  relative viability: 0.372
EMC-BAC-2; first compound 0.01581 µM
  relative viability: 0.385
EMC-BAC-2; first compound 0.05 µM
  relative viability: 0.38
EMC-BAC-2; first compound 0.1581 µM
  relative viability: 0.279
EMC-BAC-2; first compound 0.5 µM
  relative viability: 0.334
HCC-366; first compound 0.005 µM
  relative viability: 0.839
HCC-366; first compound 0.01581 µM
  relative viability: 0.849
HCC-366; first compound 0.05 µM
  relative viability: 1.02
HCC-366; first compound 0.1581 µM
  relative viability: 0.707
HCC-366; first compound 0.5 µM
  relative viability: 0.57
NCI-H1666; first compound 0.005 µM
  relative viability: 0.927
NCI-H1666; first compound 0.01581 µM
  relative viability: 0.856
NCI-H1666; first compound 0.05 µM
  relative viability: 0.843
NCI-H1666; first compound 0.1581 µM
  relative viability: 0.799
NCI-H1666; first compound 0.5 µM
  relative viability: 0.807
NCI-H1563; first compound 0.005 µM
  relative viability: 0.751
NCI-H1563; first compound 0.01581 µM
  relative viability: 0.773
NCI-H1563; first compound 0.05 µM
  relative viability: 0.784
NCI-H1563; first compound 0.1581 µM
  relative viability: 0.718
NCI-H1563; first compound 0.5 µM
  relative viability: 0.817
